Target: Kynurenine/alpha-aminoadipate aminotransferase, mitochondrial (Homo sapiens, UniProt Q8N5Z0)
Experiment: Inhibition Spectra Assay : Formation of kynurenic acid (KYNA) is indirectly assessed by a decrease in light absorbance at 370 nm (OD370) as the L-kynurenine (KYN) substrate is converted by the human KAT II (hKAT II) enzyme into KYNA.

Kynurenine/alpha-aminoadipate aminotransferase, mitochondrial, sequence (Q8N5Z0 whole entry): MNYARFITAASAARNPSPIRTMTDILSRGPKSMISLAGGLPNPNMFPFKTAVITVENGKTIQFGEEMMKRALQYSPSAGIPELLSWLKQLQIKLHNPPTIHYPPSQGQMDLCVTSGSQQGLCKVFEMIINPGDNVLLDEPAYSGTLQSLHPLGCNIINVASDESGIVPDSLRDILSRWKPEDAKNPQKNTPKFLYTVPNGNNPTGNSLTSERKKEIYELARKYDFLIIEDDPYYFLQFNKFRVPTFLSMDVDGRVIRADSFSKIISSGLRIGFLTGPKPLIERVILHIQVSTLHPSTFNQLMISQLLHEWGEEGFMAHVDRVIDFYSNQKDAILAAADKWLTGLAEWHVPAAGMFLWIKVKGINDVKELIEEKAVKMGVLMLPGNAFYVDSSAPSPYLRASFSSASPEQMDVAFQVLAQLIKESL

Which IC50 does the source give for NC1Cc2nn(-c3ccccc3)cc2N(O)C1=O (stereo unspecified) here?
Its IC50 is 0.085 µM.

— ChEMBL document CHEMBL3639371, “KAT II inhibitors” (2013)
